In patent publication US12404261B2, “Compounds and compositions for treating conditions associated with cGAS” (Novartis AG, priority 2020, dated 2025) one finds IC50 data, which are given here for 23 compounds.

The target in this assay is human truncated cGAS enzyme (147-522 human cGAS) (Homo sapiens (Human), UniProt Q8N884). The assay can be described thus: Quantification of cGAS protein inhibition (cGAMP formation measured by LC-MS/MS). It counts as biochemical. The essentials:
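Human cGAS 147-522 (30 nM) in Tris pH 7.5, NaCl, MgCl2, ZnCl2, Tween 20, started with 5 μM ISD 45 bp dsDNA, 0.5 mM GTP and 0.5 mM ATP. Incubated 1 h at room temperature, then quenched with acetonitrile/TFA. cGAMP quantified by LC-MS/MS against a labelled cGAMP internal standard; IC50 from ratio versus compound concentration.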

The mark [1] stands for this setting: reported for the potential mixture of co-existing tautomers and/or racemates.
Setting [2] is: reported for the potential mixture in solution of co-existing tautomers and/or racemates.

For orientation: IC50 means the point on the concentration scale where inhibition reaches its midpoint.

human truncated cGAS enzyme (147-522 human cGAS), sequence (Q8N884 147-522): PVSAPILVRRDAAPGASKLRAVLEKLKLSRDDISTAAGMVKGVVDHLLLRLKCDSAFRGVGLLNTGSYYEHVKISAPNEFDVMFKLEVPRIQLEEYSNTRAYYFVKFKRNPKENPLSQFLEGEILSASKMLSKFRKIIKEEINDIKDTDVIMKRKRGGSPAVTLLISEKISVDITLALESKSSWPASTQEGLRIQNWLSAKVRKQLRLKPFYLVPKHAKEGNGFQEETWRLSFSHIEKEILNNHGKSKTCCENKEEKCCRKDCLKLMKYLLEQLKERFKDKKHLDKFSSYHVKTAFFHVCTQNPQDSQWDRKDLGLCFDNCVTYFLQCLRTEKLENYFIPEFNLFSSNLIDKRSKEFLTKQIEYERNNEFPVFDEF

In the case of `COc1cc2c(-c3cn[nH]c3)c(-c3nnc(F)[nH]3)n(C)c2c(F)c1Cl` [Example 58, 6-chloro-7-fluoro-2-(5-fluoro-4H-1,2,4-triazol-3-yl)-5-methoxy-1-methyl-3-(1H-pyrazol-4-yl)-1H-indole], the IC50 under setting [1] worked out at 30 nM.
For the compound `COCC(F)c1nnc(-c2c(-c3cn[nH]c3)c3cc(OC)c(Cl)c(F)c3n2C)[nH]1` (centres unmarked) [Example 70, 6-chloro-7-fluoro-2-(5-(1-fluoro-2-methoxyethyl)-4H-1,2,4-triazol-3-yl)-5-methoxy-1-methyl-3-(1H-pyrazol-4-yl)-1H-indole], the IC50 under setting [1] stood at 39 nM.
For the compound `COCC(=O)N(C)c1nnc(-c2c(-c3cn[nH]c3)c3cc(OC)c(Cl)c(F)c3n2C)[nH]1` [Example 62, N-(5-(6-chloro-7-fluoro-5-methoxy-1-methyl-3-(1H-pyrazol-4-yl)-1H-indo1-2-yl)-4H-1,2,4-triazol-3-yl)-2-methoxy-N-methylacetamide], the IC50 under setting [1] amounted to 60 nM.
In the case of `CCOc1cc2c(-n3ccnc3)c(-c3nnc(C(C)=O)[nH]3)n(C)c2c(F)c1Cl` [Example 101, 1-(5-(6-chloro-5-ethoxy-7-fluoro-3-(1H-imidazol-1-yl)-1-methyl-1H-indol-2-yl)-4H-1,2,4-triazol-3-yl)ethan-1-one], under setting [2], the IC50 came out at 721 nM.
Take `FC(F)(F)c1nnc(-c2[nH]c3c(Cl)c(Cl)ccc3c2-c2cc[nH]n2)[nH]1` [Example 78, 6,7-dichloro-3-(1H-pyrazol-3-yl)-2-(5-(trifluoromethyl)-4H-1,2,4-triazol-3-yl)-1H-indole]: under setting [1], the half-inhibitory concentration (IC50) was determined as 3690 nM.
With `OCCn1cnc(-c2[nH]c3c(Cl)c(Cl)ccc3c2-c2cn[nH]c2)n1` [Example 37, 2-(3-(6,7-dichloro-3-(1H-pyrazol-4-yl)-1H-indol-2-yl)-1H-1,2,4-triazol-1-yl)ethan-1-ol], under setting [1], the IC50 came out at 137 nM.
Turning to `COc1cc2c(-c3cn[nH]c3)c(-c3nnc(C(C)(F)F)[nH]3)n(C)c2c(F)c1Cl` [Example 68, 6-chloro-2-(5-(1,1-difluoroethyl)-4H-1,2,4-triazol-3-yl)-7-fluoro-5-methoxy-1-methyl-3-(1H-pyrazol-4-yl)-1H-indole], under setting [1], the half-maximal inhibitory concentration (IC50) amounted to 33 nM.
On to `N#Cc1nnc(-c2[nH]c3c(Cl)c(Cl)ccc3c2-c2cn[nH]c2)[nH]1` [Example 35, 5-(6,7-Dichloro-3-(1H-pyrazol-4-yl)-1H-indol-2-yl)-4H-1,2,4-triazole-3-carbonitrile], for which the IC50 under setting [1] worked out at 77 nM.
As to `COc1cc2c(-n3ccnc3)c(-c3nnc(C(C)=O)[nH]3)n(C)c2c(F)c1Cl` [Example 102, 1-(5-(6-chloro-7-fluoro-3-(1H-imidazol-1-yl)-5-methoxy-1-methyl-1H-indol-2-yl)-4H-1,2,4-triazol-3-yl)ethan-1-one], the IC50 under setting [2] is 108 nM.
In the case of `COCC(F)(F)c1nnc(-c2c(-n3ccnc3)c3cc(OC)c(Cl)c(F)c3n2C)[nH]1` [Example 89, 6-chloro-2-(5-(1,1-difluoro-2-methoxyethyl)-4H-1,2,4-triazol-3-yl)-7-fluoro-3-(1H-imidazol-1-yl)-5-methoxy-1-methyl-1H-indole], the IC50 under setting [1] was 40 nM.
For the compound `Oc1c(Cl)ccc2c(-c3cn[nH]c3)c(-c3nnc(C(F)(F)F)[nH]3)[nH]c12` [Example 34, 6-chloro-3-(1H-pyrazol-4-yl)-2-(5-(trifluoromethyl)-4H-1,2,4-triazol-3-yl)-1H-indol-7-ol], the IC50 under setting [1] was 954 nM.
Turning to `COc1cc2c(-n3ccnc3)c(-c3nnc(N4CC[C@H](O)C4)[nH]3)n(C)c2c(F)c1Cl` [Example 92, (S)-1-(5-(6-chloro-7-fluoro-3-(1H-imidazol-1-yl)-5-methoxy-1-methyl-1H-indol-2-yl)-4H-1,2,4-triazol-3-yl)pyrrolidin-3-ol], under setting [1], the IC50 came out at 81 nM.
The same measure, in the same setting: in the case of `COc1cc2c(-n3ccnc3)c(-c3n[nH]c(C(CO)OC)n3)n(C)c2c(F)c1Cl` (centres unmarked) [Example 93, 2-(3-(6-chloro-7-fluoro-3-(1H-imidazol-1-yl)-5-methoxy-1-methyl-1H-indol-2-yl)-1H-1,2,4-triazol-5-yl)-2-methoxyethan-1-ol] it was 60 nM.
For `COCC(F)c1nnc(-c2[nH]c3c(Cl)c(Cl)ccc3c2-c2cn[nH]c2)[nH]1` (centres unmarked) [Example 10, 6,7-dichloro-2-(5-(1-fluoro-2-methoxyethyl)-4H-1,2,4-triazol-3-yl)-3-(1H-pyrazol-4-yl)-1H-indole], the 50% inhibitory concentration (IC50) under setting [1] was 74 nM.
Turning to `COc1cc2c(-n3ccnc3)c(-c3nnc(C(C)N(C)C)[nH]3)n(C)c2c(F)c1Cl` (centres unmarked) [Example 122, 1-(5-(6-chloro-7-fluoro-3-(1H-imidazol-1-yl)-5-methoxy-1-methyl-1H-indol-2-yl)-4H-1,2,4-triazol-3-yl)-N,N-dimethylethan-1-amine], under setting [2], the IC50 is 177 nM.
Take `CCOC(=O)c1nnc(-c2[nH]c3cc(Cl)c(OC)cc3c2-c2cn[nH]c2)[nH]1` [Example 28, ethyl 5-(6-chloro-5-methoxy-3-(1H-pyrazol-4-yl)-1H-indol-2-yl)-4H-1,2,4-triazole-3-carboxylate]: the half-inhibitory concentration (IC50) under setting [1] was 75 nM.
In the case of `COc1cc2c(-n3ccnc3)c(-c3nnc(CCO)[nH]3)n(C)c2c(C#N)c1Cl` [Example 118, 6-chloro-2-(5-(2-hydroxyethyl)-4H-1,2,4-triazol-3-yl)-3-(1H-imidazol-1-yl)-5-methoxy-1-methyl-1H-indole-7-carbonitrile], the IC50 under setting [2] was determined as 291 nM.
On to `CN[C@@H](COC)c1nnc(-c2c(-n3ccnc3)c3cc(OC)c(Cl)c(F)c3n2C)[nH]1` [Example 125a, (R)-1-(5-(6-chloro-7-fluoro-3-(1H-imidazol-1-yl)-5-methoxy-1-methyl-1H-indol-2-yl)-4H-1,2,4-triazol-3-yl)-2-methoxy-N-methylethan-1-amine], for which the IC50 under setting [2] was determined as 180 nM.
`COc1cc2c(-n3ccnc3)c(-c3nnc(C(=O)N4CCC(O)CC4)[nH]3)n(C)c2c(F)c1Cl` [Example 44, (5-(6-chloro-7-fluoro-3-(1H-imidazol-1-yl)-5-methoxy-1-methyl-1H-indol-2-yl)-4H-1,2,4-triazol-3-yl)(4-hydroxypiperidin-1-yl)methanone]: under setting [1], the IC50 stood at 58 nM.
Turning to `COc1cc2c(-n3ccnc3)c(-c3nnc(C(OC)C(F)F)[nH]3)n(C)c2c(F)c1Cl` (centres unmarked) [Example 99, 6-chloro-2-(5-(2,2-difluoro-1-methoxyethyl)-4H-1,2,4-triazol-3-yl)-7-fluoro-3-(1H-imidazol-1-yl)-5-methoxy-1-methyl-1H-indole], the IC50 under setting [2] is 64 nM.
For `CNC(C)c1nnc(-c2c(-n3ccnc3)c3cc(OC)c(Cl)c(F)c3n2C)[nH]1` (centres unmarked) [Example 123, 1-(5-(6-chloro-7-fluoro-3-(1H-imidazol-1-yl)-5-methoxy-1-methyl-1H-indol-2-yl)-4H-1,2,4-triazol-3-yl)-N-methylethan-1-amine], under setting [2], the IC50 was 121 nM.
In the case of `COc1cc2c(-n3ccnc3)c(-c3nnc(C(=O)N4CCN(C)CC4)[nH]3)n(C)c2c(F)c1Cl` [Example 46, (5-(6-chloro-7-fluoro-3-(1H-imidazol-1-yl)-5-methoxy-1-methyl-1H-indol-2-yl)-4H-1,2,4-triazol-3-yl)(4-methylpiperazin-1-yl)methanone], the 50% inhibitory concentration (IC50) under setting [1] is 138 nM.
On the same count and under the same terms, with `Clc1ccc2c(-c3cn[nH]c3)c(-c3nnc(Br)[nH]3)[nH]c2c1Cl` [Example 5, 2-(5-bromo-4H-1,2,4-triazol-3-yl)-6,7-dichloro-3-(1H-pyrazol-4-yl)-1H-indole] the figure was 93 nM.
